Patent US20160046618A1, “Cyclopropyl Fused Thiazin-2-Amine Compounds as Beta-Secretase Inhibitors and Methods of Use” (AMGEN INC., priority 2014, published 2016)

What was measured:
[1] = target: Recombinant Cat D (Homo sapiens (Human), UniProt P07339); test: In vitro enzymatic Cathepsin D (Cat D) FRET assay; format: biochemical; conditions: read-out: IC50 IP (μM) CatD
Method in brief: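 Cleavage of a 20 nM FRET peptide by CHO-derived Cat D over 1 h at pH 3.5 (citrate buffer with CHAPS, 10% DMSO final). Endpoint fluorescence is read after Tris quench.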

[2] = target: human recombinant BACE1 (Homo sapiens (Human), UniProt P56817); test: In vitro enzymatic BACE1 FRET assay; format: biochemical; conditions: read-out: IC50 IP (μM) BACE1 enzyme
Method in brief: (§1)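 Tris addition raises the pH to neutral to stop the reaction before fluorescence is measured at 590 nm emission with 488 nm excitation.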

[3] = tested on: Aβ40 in conditioned medium of cells stably expressing Amyloid Precursor Protein (APP); test: In vitro BACE-1 cell-based assay (Aβ40 sandwich ELISA); conditions: read-out: IC50 IP (μM) BACE1 cell
Method in brief: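 Read-out: time-resolved fluorescence (Streptavidin-Europium) of Aβ40 captured by pAb40 and detected with biotinylated 6E10 from supernatants of APP-stable cells. Cells were exposed to compound for 24 h, 10-point dose response, top dose 100 μM or 10 μM, 0.1% DMSO. IC50 fitted to percent of control.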

[4] = target: human recombinant BACE2 (Homo sapiens (Human), UniProt Q9Y5Z0); test: In vitro enzymatic BACE2 FRET assay; format: biochemical; conditions: read-out: IC50 IP (μM) BACE2 enzyme
Method in brief: as §1

Chain of human recombinant BACE1 (P56817 46-501): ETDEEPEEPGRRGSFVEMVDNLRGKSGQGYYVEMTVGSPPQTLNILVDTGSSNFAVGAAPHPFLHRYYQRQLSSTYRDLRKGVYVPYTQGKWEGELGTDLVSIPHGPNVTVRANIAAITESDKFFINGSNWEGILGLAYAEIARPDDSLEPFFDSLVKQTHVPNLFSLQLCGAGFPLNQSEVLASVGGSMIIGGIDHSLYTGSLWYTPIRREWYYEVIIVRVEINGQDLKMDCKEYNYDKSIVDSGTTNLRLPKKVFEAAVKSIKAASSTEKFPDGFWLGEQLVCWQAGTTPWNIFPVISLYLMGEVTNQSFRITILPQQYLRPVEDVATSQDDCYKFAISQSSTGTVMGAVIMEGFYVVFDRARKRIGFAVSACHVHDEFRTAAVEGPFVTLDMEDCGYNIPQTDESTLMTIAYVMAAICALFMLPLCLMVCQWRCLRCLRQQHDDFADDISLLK
Chain of Recombinant Cat D (P07339 65-412): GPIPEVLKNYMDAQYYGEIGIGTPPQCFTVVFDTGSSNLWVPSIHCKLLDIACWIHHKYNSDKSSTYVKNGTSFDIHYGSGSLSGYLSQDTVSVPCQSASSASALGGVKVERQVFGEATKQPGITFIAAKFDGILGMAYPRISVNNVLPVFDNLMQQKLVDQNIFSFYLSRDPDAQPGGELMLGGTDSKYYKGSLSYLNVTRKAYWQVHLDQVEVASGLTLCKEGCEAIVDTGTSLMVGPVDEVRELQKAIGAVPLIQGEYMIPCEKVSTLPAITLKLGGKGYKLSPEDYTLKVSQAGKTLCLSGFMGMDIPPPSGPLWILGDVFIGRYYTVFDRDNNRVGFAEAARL
Chain of human recombinant BACE2 (Q9Y5Z0 63-518): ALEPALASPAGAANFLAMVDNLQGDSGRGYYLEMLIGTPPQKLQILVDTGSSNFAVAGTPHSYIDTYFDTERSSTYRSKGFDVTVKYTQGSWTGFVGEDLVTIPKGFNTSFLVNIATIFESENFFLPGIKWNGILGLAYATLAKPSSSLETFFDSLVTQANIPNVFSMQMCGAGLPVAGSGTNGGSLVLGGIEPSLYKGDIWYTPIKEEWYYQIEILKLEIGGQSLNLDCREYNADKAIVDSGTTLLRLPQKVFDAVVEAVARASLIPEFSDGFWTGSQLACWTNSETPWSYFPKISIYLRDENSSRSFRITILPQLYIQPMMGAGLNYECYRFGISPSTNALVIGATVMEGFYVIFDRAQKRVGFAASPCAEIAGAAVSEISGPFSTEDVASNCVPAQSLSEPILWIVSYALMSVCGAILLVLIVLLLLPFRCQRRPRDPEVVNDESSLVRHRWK

Row | IC50 [1] | IC50 [2] | IC50 [3] | IC50 [4] | Structure (SMILES)
1 | 972 µM | 0.000898 µM | 0.0175 µM | 0.0257 µM | C[C@]1(c2cc(NC(=O)c3ccc(OCc4ncco4)cn3)cc(F)c2F)N=C(N)S[C@@]2(S(C)(=O)=O)C[C@H]21 [Example 745, N-(3-((1R,5S,6S)-3-amino-5-methyl-1-(methylsulfonyl)-2-thia-4-azabicyclo[4.1.0]hept-3-en-5-yl)-4,5-difluorophenyl)-5-(1,3-oxazol-2-ylmethoxy)-2-pyridinecarboxamide]
2 | 880 µM | 0.000628 µM | 0.00356 µM | 0.00522 µM | C[C@]1(c2cc(NC(=O)c3cnc(OCc4ncco4)cn3)cc(F)c2F)N=C(N)S[C@@]2(S(C)(=O)=O)C[C@H]21 [Example 746, N-(3-((1R,5S,6S)-3-amino-5-methyl-1-(methylsulfonyl)-2-thia-4-azabicyclo[4.1.0]hept-3-en-5-yl)-4,5-difluorophenyl)-5-(1,3-oxazol-2-ylmethoxy)-2-pyrazinecarboxamide]
3 | 1190 µM | 0.00242 µM | 0.0123 µM | 0.0115 µM | C[C@]1(c2cc(Nc3nccc4nc(OCc5ncco5)cnc34)cc(F)c2F)N=C(N)S[C@@]2(S(C)(=O)=O)C[C@H]21 [Example 747, (1R,5S,6S)-5-(2,3-difluoro-5-((2-(oxazol-2-ylmethoxy)pyrido[3,4-b]pyrazin-5-yl)amino)phenyl)-5-methyl-1-(methylsulfonyl)-2-thia-4-azabicyclo[4.1.0]hept-3-en-3-amine]
4 | 129 µM | 0.00807 µM | 0.597 µM | 0.00284 µM | C[C@]1(c2cc(NC(=O)c3ccc(Cl)cn3)cc(F)c2F)N=C(N)S[C@@H]2[C@H]1C2(F)F [Example 748, N-(3-((1R,5S,6R)-3-amino-7,7-difluoro-5-methyl-2-thia-4-azabicyclo[4.1.0]hept-3-en-5-yl)-4,5-difluorophenyl)-5-chloro-2-pyridinecarboxamide]
5 | 101 µM | 0.000319 µM | 0.00121 µM | 0.00979 µM | C#CCOc1cnc(C(=O)Nc2ccc(F)c([C@@]3(C)N=C(N)S[C@]4(CO)[C@H]3C4(F)F)c2)cn1 [Example 749, N-(3-((1S,5S,6R)-3-amino-7,7-difluoro-1-(hydroxymethyl)-5-methyl-2-thia-4-azabicyclo[4.1.0]hept-3-en-5-yl)-4-fluorophenyl)-5-(2-propyn-1-yloxy)-2-pyrazinecarboxamide]
6 | 246 µM | 0.0019 µM | 0.00301 µM | 0.0404 µM | C[C@]1(c2cc(Nc3ncnc4cc(OCc5ncco5)cnc34)ccc2F)N=C(N)S[C@]2(CO)[C@H]1C2(F)F [Example 750, ((1S,5S,6R)-3-amino-7,7-difluoro-5-(2-fluoro-5-((7-(1,3-oxazol-2-ylmethoxy)pyrido[3,2-d]pyrimidin-4-yl)amino)phenyl)-5-methyl-2-thia-4-azabicyclo[4.1.0]hept-3-en-1-yl)methanol]
7 | 292 µM | 0.00203 µM | 0.0338 µM | 0.255 µM | C[C@]1(c2cc(NC(=O)c3ccc(OCC(F)(F)C(F)F)cn3)ccc2F)N=C(N)S[C@]2(CO)[C@H]1C2(F)F [Example 751, N-(3-((1S,5S,6R)-3-amino-7,7-difluoro-1-(hydroxymethyl)-5-methyl-2-thia-4-azabicyclo[4.1.0]hept-3-en-5-yl)-4-fluorophenyl)-5-(2,2,3,3-tetrafluoropropoxy)-2-pyridinecarboxamide]
8 | 420 µM | 0.00339 µM | 0.0964 µM | 0.00304 µM | NC1=N[C@](CF)(c2cc(NC(=O)c3ccc(Cl)cn3)ccc2F)[C@@H]2C3CSC[C@]32S1 (stereo partly drawn) [Example 753, N-(3-((4S,4aS,7aR)-2-amino-4-(fluoromethyl)-4a,4b,5,7-tetrahydro-4H-thieno[3′,4′:2,3]cyclopropa[1,2-e][1,3]thiazin-4-yl)-4-fluorophenyl)-5-chloropicolinamide]
9 | 844 µM | 0.0454 µM | 0.0781 µM | 0.00588 µM | NC1=N[C@](CF)(c2cc(Nc3nncc4cc(Cl)cnc34)ccc2F)[C@@H]2C[C@@H]2S1 [Example 754, (1S,5S,6S)-5-(5-((3-chloropyrido[2,3-d]pyridazin-8-yl)amino)-2-fluorophenyl)-5-(fluoromethyl)-2-thia-4-azabicyclo[4.1.0]hept-3-en-3-amine]
10 | > 400 µM | 0.00373 µM | 0.00659 µM | < 0.00203 µM | NC1=N[C@](CF)(c2cc(NC(=O)c3ccc(Cl)cn3)ccc2F)[C@@H]2C[C@]2(/C=C/CO)S1 [Example 756, N-(3-((1R,5S,6S)-3-amino-5-(fluoromethyl)-1-((E)-3-hydroxyprop-1-en-1-yl)-2-thia-4-azabicyclo[4.1.0]hept-3-en-5-yl)-4-fluorophenyl)-5-chloropicolinamide]
11 | 458 µM | 0.000176 µM | 0.0498 µM | < 0.00203 µM | NC1=N[C@](CF)(c2cc(NC(=O)c3ccc(Cl)cn3)ccc2F)[C@@H]2C[C@]2(/C=C/C(=O)O)S1 [Example 757, (E)-3-((1R,5S,6S)-3-amino-5-(5-(5-chloropicolinamido)-2-fluorophenyl)-5-(fluoromethyl)-2-thia-4-azabicyclo[4.1.0]hept-3-en-1-yl)acrylic acid]
12 | 2070 µM | 0.00156 µM | 0.00195 µM | < 0.00203 µM | NC1=N[C@](CF)(c2cc(NC(=O)c3ccc(Cl)cn3)ccc2F)[C@@H]2C[C@]2(CCCO)S1 [Example 758, N-(3-((1S,5S,6S)-3-amino-5-(fluoromethyl)-1-(3-hydroxypropyl)-2-thia-4-azabicyclo[4.1.0]hept-3-en-5-yl)-4-fluorophenyl)-5-chloropicolinamide]
13 | > 400 µM | 0.00101 µM | 0.00265 µM | < 0.00203 µM | NC(=O)/C=C/[C@]12C[C@H]1[C@@](CF)(c1cc(NC(=O)c3ccc(Cl)cn3)ccc1F)N=C(N)S2 [Example 759, N-(3-((1R,5S,6S)-3-amino-1-((E)-3-amino-3-oxoprop-1-en-1-yl)-5-(fluoromethyl)-2-thia-4-azabicyclo[4.1.0]hept-3-en-5-yl)-4-fluorophenyl)-5-chloropicolinamide]
14 | 779 µM | 0.000415 µM | 0.00265 µM | < 0.00203 µM | CNC(=O)/C=C/[C@]12C[C@H]1[C@@](CF)(c1cc(NC(=O)c3ccc(Cl)cn3)ccc1F)N=C(N)S2 [Example 760, N-(3-((1R,5S,6S)-3-amino-5-(fluoromethyl)-1-((E)-3-(methylamino)-3-oxoprop-1-en-1-yl)-2-thia-4-azabicyclo[4.1.0]hept-3-en-5-yl)-4-fluorophenyl)-5-chloropicolinamide]
15 | 364 µM | 0.000794 µM | 0.00152 µM | < 0.00203 µM | CN(C)C(=O)/C=C/[C@]12C[C@H]1[C@@](CF)(c1cc(NC(=O)c3ccc(Cl)cn3)ccc1F)N=C(N)S2 [Example 761, N-(3-((1R,5S,6S)-3-amino-1-((E)-3-(dimethylamino)-3-oxoprop-1-en-1-yl)-5-(fluoromethyl)-2-thia-4-azabicyclo[4.1.0]hept-3-en-5-yl)-4-fluorophenyl)-5-chloropicolinamide]
16 | 669 µM | 0.00303 µM | 0.0142 µM | 0.0384 µM | C#CCOc1cnc2c(Nc3ccc(F)c([C@@]4(CF)N=C(N)S[C@H]5C[C@H]54)c3)nccc2n1 [Example 762, N-(3-((1S,5S,6S)-3-amino-5-(fluoromethyl)-2-thia-4-azabicyclo[4.1.0]hept-3-en-5-yl)-4-fluorophenyl)-2-(2-propyn-1-yloxy)pyrido[3,4-b]pyrazin-5-amine]
17 | 1110 µM | 0.00849 µM | 0.0048 µM | 0.239 µM | NC1=N[C@](CF)(c2cc(Nc3ncnc4cc(OCc5ncco5)cnc34)ccc2F)[C@@H]2C[C@@H]2S1 [Example 763, N-(3-((1S,5S,6S)-3-amino-5-(fluoromethyl)-2-thia-4-azabicyclo[4.1.0]hept-3-en-5-yl)-4-fluorophenyl)-7-(1,3-oxazol-2-ylmethoxy)pyrido[3,2-d]pyrimidin-4-amine]
18 | 518 µM | 0.00073 µM | 0.000856 µM | < 0.00203 µM | NC1=N[C@](CF)(c2cc(NC(=O)c3ccc(Cl)cn3)ccc2F)[C@@H]2C[C@]2(/C=C/C(=O)N2CCOCC2)S1 [Example 764, N-(3-((1R,5S,6S)-3-amino-5-(fluoromethyl)-1-((E)-3-morpholino-3-oxoprop-1-en-1-yl)-2-thia-4-azabicyclo[4.1.0]hept-3-en-5-yl)-4-fluorophenyl)-5-chloropicolinamide]

Row | Structure (SMILES) | IC50 [1] | IC50 [2] | IC50 [3] | IC50 [4]
19 | CCOC(=O)/C=C/[C@]12C[C@H]1[C@@](CF)(c1cc(NC(=O)c3ccc(Cl)cn3)ccc1F)N=C(N)S2 [Example 755, (E)-ethyl 3-((1R,5S,6S)-3-amino-5-(5-(5-chloropicolinamido)-2-fluorophenyl)-5-(fluoromethyl)-2-thia-4-azabicyclo[4.1.0]hept-3-en-1-yl)acrylate] | 250 µM | 0.00147 µM | 0.00838 µM | < 0.00203 µM
